Assay results as given in patent US20080293699A1, “Inhibitors of thapsigargin-induced cell death” (priority 2007, published 2008).
“Also recorded” adds a separate entry of the source. Read-outs that look alike come from different tables or passages of the source.

Assays:
[1] = tested on: phospho-c-Jun; test: Immunoblotting of thapsigargin-induced c-Jun phosphorylation in CSM14.1 cells; format: cell-based, rat; settings: immunoblotting with phospho-specific antibody, 10 μM, 25 μM hits
From the text: After confirming the pathway selectivity of compounds, additional downstream assays can be performed to map the specific signal transduction pathway inhibited by the compounds. In this regard, various antibody reagents are commercially available for assessing the status of the three major pathways known to be activated by ER stress: (1) PERK, (2) Ire1, and (3) ATF6 (Xu et al., J. Clinical Invest., 115:2656-2664, 2005). Immunoblotting experiments can be performed to assess the expression or phosphorylation (using phospho-specific antibodies) of marker proteins in these pathways. […] CSM 14.1 cells were cultured with DMSO or with 25 μM of hit compounds for two hours, followed by treatment of thapsigargin (15 μM). Cell lysates were prepared and analyzed by SDS-PAGE/immunoblotting using antibodies specific for phospho-c-Jun, phospho-eIF2α, phospho-p38 MAPK, and tubulin (a loading control). CSM14.1 cells were cultured with either DMSO or one of the active compounds at 1, 5, and 10 μM, followed two hours later by 15 μM TG. After two hrs, cell lysates were prepared, normalized for protein content, and either analyzed by SDS-PAGE/immunoblotting using anti-p38-MAPK pan-reactive antibody or phospho-specific antibody with ECL-based detection, followed by densitometry analysis of x-ray films, normalizing phosphor-p38 MAPK relative to total p38 MAPK, or analyzed using a meso-scale instrument from MSD and a procedure in which total p38 MAPK is captured on plates, and the relative amounts of phosphorylated protein were determined using phospho-specific antibody (MSD catalog #K15112D1). […] Suppression of p38 MAPK and c-Jun phosphorylation was dose-dependent, and could not be explained by a decline in total levels of these proteins. […] Proteolytic processing of ATF6 was also not inhibited by our hit compounds. […] Screens of other libraries (such as the NIH compound collection) may yield cytoprotective compounds with different mechanisms.
1) CSM14.1 cells were plated at a density of 2×10^5 cells/well at 6 well dish (Greiner Bio one) in DMEM containing 2% FBS and antibiotics.
2) After overnight incubation, cells were treated by DMSO (0.5%) or compounds (25 μM) for two hours, followed by TG (15 uM) treatment.
3) After two hours, cells were lyzed in 250 uL of lysis buffer and subjected to protein concentration decision, and to SDS PAGE/Western blotting using antibodies specific for phospho p38 MAPK (Cell signaling 9211), p38 MAPK (Santa Cruz-C20), phospho c-Jun (Cell signaling 9164), c-Jun (Santa Cruz-SC 1694), phospho eIF2α (Cell signaling 3597) and α-tubulin.
CSM 14.1 cells were cultured with DMSO or with 25 μM of hit compounds for two hours followed by treatment with thapsigargin (15 μM). Cell lysates were prepared and analyzed by SDS-PAGE/immunoblotting using antibodies specific for: c-Jun, phosphor-c-Jun (ser 73), eIF2a, phosphor-eIF2a (ser 51), p38 MAPK, phosphor-p38 MAPK (Thr180/Tyr182), ATF-6, CHOP and tubulin (loading control). ER stress-induced activation of C-Jun and p38 MAPK is suppressed by the 11 hit compounds.
CSM cells were treated with two compounds at increasing doses. Pre-incubation time, thapsigargin treatment, cell extract preparation and immunoblotting protocols were as described previously.

[2] = tested on: CSM14.1 cells; test: Primary HTS assay: ATP content (ATPlite) of undifferentiated CSM14.1 cells challenged with thapsigargin; format: cell-based, rat; settings: for Activity against thapsigargin-induced cell death / cell protection: cell death assay used for primary screening; for IC50: thapsigargin-induced death of undifferentiated CSM14.1, ATP content
From the text: For convenience, and because transient reductions in temperature that might be associated with large screening experiments could restore Large T activity, we elected to develop our HTS using undifferentiated CSM14.1 cells, with the plan to then confirm hits using differentiated cells. For monitoring cell death, we used a commercially available bioluminescence reagent that determines intracellular ATP content, without requirement for complicated cell processing steps (ATPlite, Perkin Elmer). Thus, ATP was used as a surrogate indicator of cell survival for the primary assay.
Undifferentiated or differentiated CSM14.1 cells were plated at a density of 3,000 cells/well in 40 μL DMEM medium (containing 10% serum, 1 mM L-glutamine, and antibiotics) in 96 well flat-bottom microtiter plates composed of polystrene (Greiner Bio One, polystyrene, white wall, flat bottom, lumitrac, high binding). After overnight incubation at 32° C., DMSO (0.5% v/v) or 100 uM Salubrinal (Sal) in DMSO was delivered. After 2 hrs, 5 uL of a stock solution of 150 uM TG in DMEM medium containing 0.75% (v:v) DMSO to achieve a final concentration of approximately 15 uM. After culturing for 24 hrs, cellular ATP content was measured by addition of 20 uL per well of ATPlite solution (Perkin-Elmer), and then the plates were incubated for three minutes at room temperature, before reading with a Microplate Luminometer (BD Pharmingen Moonlight model 3096).
To determine the reproducibility of the ATP content assay, we prepared a 96-well plate in which half the wells received TG plus DMSO (assay minimum) and half received TG plus Salubrinal (assay maximum), then performed the ATP content studies using undifferentiated CSM14.1 cells (FIG. 6). CSM14.1 cells were cultured overnight at 3,000 cells per well in 96-well flat-bottom plates, then either DMSO (0.5% final concentration) or Salubrinal (100 μM) in DMSO (0.5% final concentration) was added to half the well (48 each). After two hrs, TG was added to all wells (15 μM final). Cells were cultured for 24 hrs, then the ATP content was measured using the ATPlite luminogenic assay. We then adapted this assay to the high-throughput environment, using a Biomex™ FX liquid handler for automated dispensing of assay components into microwells of 96-well plates. First, undifferentiated CSM14.1 cells were grown at 32° C. in DMEM medium supplemented with 10% fetal bovine serum (FBS), 1% penicillin/streptomycin, and 1% L-glutamine in 150 mm×25 mm polystyrene culture dishes to produce approximately 3×10^6 cells. Second, CSM14.1 cells were recovered from cultures by trypsinization when at 80-90% confluence, and suspended at 7.5×10^4 cells/mL in DMEM medium containing 2% FBS, 1 mM L-glutamine, and antibiotics 100 IU penicillin 100 μg/ml streptomycin. Third, the cell suspension was then delivered at 40 μL per well of 96-well plastic microtiter plates (Greiner Bio One, polystyrene, white wall, flat bottom, lumitrac, high binding, cat #655074), and the plates were cultured overnight at 32° C. in a humidified atmosphere in 95% air: 5% CO2. Fourth, using the automated liquid handler, 5 μL of test compounds in 10% DMSO were added to wells in columns 2-11 of the 96-well plates (leaving columns 1 and 12 intact) to achieve an approximate final concentration of 15 μg/mL test compound and a final concentration of 1% DMSO. Fifth, 5 μL of 1 mM Salubrinal in a solution of 10% DMSO:90% DMEM was added to wells of column 1/rows A-D of each plate, while 5 μL of 10% DMSO:90% DMEM solution was added to wells corresponding to column 1/rows E-H and to all wells in column 12. Sixth, the plates were returned to culture.

[3] = tested on: ASK1 (ser 967, ser 83, thr 845); test: Phosphorylation of ASK1 sites in ASK1-transfected 293T cells (immunoblotting); format: cell-based; settings: ASK1-transfected 293T; for Phosphorylation of ASK1 at ser 967: 100 μM compound, two hours; for Phosphorylation of ASK1 at ser 83 and thr 845: up to 100 μM
Procedure: Phosphorylation of ASK1 at various sites was inspected. 293T cells were transfected with pcDNA-ASK1-HA. One day later, cells were incubated with DMSO (0.4%) or 100 μM compound 6239507 (#1) for two hours. Cell extracts were prepared using lysis buffer and were subjected to immunoblotting using anti-phospho ASK1 antibodies or anti HA antibody as indicated (A). The relative density of each phosphorylated ASK band was calculated by imageJ software (B). In (C), compounds from (A) were compared in activity against thapsigargin-induced cell death. […] (D) 293T cells were transfected with pcDNA-ASK1-HA and pEBG-GST-14-3-3. One day later cells were incubated with DMSO (0.4%) or 100 μM of the indicated compound for two hours. Then cells were treated with thapsigargin (20 μM) for the indicated time. Cell extracts were prepared using lysis buffer, and 14-3-3 proteins were immunoprecipitated with […] sepharose beads. ASK1 protein binding with 14-3-3 was visualized by immunoblotting using anti-HA antibody. Anti-phospho ASK1 (ser967) antibody was used to detect phosphorylation of ASK1 at each time point.
Thus, while not directly inhibiting ASK1 kinase activity, these events are predicted to reduce ASK1 in vivo kinase activity. It is possible that compound 5962123 inhibits a protein phosphatase that regulates phosphorylation of Ser967.
Suppression of thapsigargin-induced phosphorylation of p38MAPK was also measured by a quantitative ELISA-methods, with IC50 for p38MAPK phosphorylation estimated at <5 μM. In contrast, thapsigargin-induced expression of CHOP, expression of ATF4, proteolytic processing of ATF6, phosphorylation of eIF2a (Ser 51), auto-phosphorylation of Ire1a or auto-phosphorylation of ASK1 were not inhibited directly by CID-2878746 at concentrations up to 50 μM tested by in vitro kinase assay using p32-γ-ATP substrate. […] Thapsigargin-induced reductions in phosphorylation of ASK1 at the serine 967 site in ASK1 transfected 293T cells are inhibited by compound 5962123 at concentrations of 50-100 μM, as determined by immunoblotting using anti-phospho-specific (ser 967) antibody, but thapsigargin-induced changes in phosphorylation of ASK1 at ser 83 and thr 845 are not modulated by compound 5962123 at concentrations as high as 100 μM in ASK1-transfected HEK293T cells.
Experiments were also performed to determine whether compound 6239507 enhances phosphorylation of ASK1 at Ser 967 before and after ER stress induction (i.e., thapsigargin treatment). 293T cells were transfected with pcDNA-ASK1-HA. One day later, cells were incubated with DMSO (0.4%) or 100 μM compound 6239507 (#1) for two hours. Then cells were treated with thapsigargin (20 μM) for the indicated times. Cell extracts were prepared by lysis buffer and were subjected to immunoblotting with anti-phospho ASK1 Ser967 antibody or anti HA antibody. The relative density of phosphor ser967 bands were calculated by imageJ software (mean ±SD).
The ser 967 site of ASK1 is known to down-regulate ASK1 activity by phosphorylation (Goldman et al., J. Biol. Chem. 279:10442-10449, 2004) via 14-3-3 binding. […] 293T cells were transfected with pcDNA-ASK1-HA. One day later, cells were incubated with DMSO (0.4%) or 100 μM compound 6239507 (#1) for two hours. Cell extracts were prepared using lysis buffer and were subjected to immunoblotting using anti-phospho ASK1 antibodies or anti HA antibody as indicated. The relative density of each phosphorylated ASK band was calculated by imageJ software. The compounds were compared in activity against thapsigargin-induced cell death. 293T cells were transfected with pcDNA-ASK1-HA and pEBG-GST-14-3-3. One day later cells were incubated with DMSO (0.4%) or 100 μM of the indicated compound for two hours. Then cells were treated with thapsigargin (20 μM) for the indicated time. Cell extracts were prepared using lysis buffer, and 14-3-3 proteins were immunoprecipitated with […] sepharose beads. […]

[4] = one value given, read-out: IC50
[5] = first assay, read-out: IC50 (μM), first value
[6] = second assay (value in bold), read-out: IC50 (μM), value from a second assay

For `COc1ccc(C2CC(=O)C3=C(C2)Nc2ccccc2NC3c2cccc(O)c2)cc1` (stereo not drawn) [Compound 6048163], the “Thapsigargin-induced phosphorylation of c-Jun” value [1] was “fail to suppress”, the “Activity against thapsigargin-induced cell death / cell protection” value [2] was “inactive in cell protection; also recorded: not potent as an inhibitor of cell death” and the IC50 [2, 4] was > 200 µM.

With `CCOc1cc(C2Nc3ccccc3NC3=C2C(=O)CC(c2ccc(OC)cc2)C3)cc(Cl)c1O` (stereo not drawn) [Compound 6049448] the “Phosphorylation of ASK1 at ser 967” value [3] was “enhanced phosphorylation of ser 967 only”, the “Phosphorylation of ASK1 at ser 83 and thr 845” value [3] was “not ser 83 or thr 845” and the IC50 [2, 5] was 24.8 ± 2.03 µM. It also gave an IC50 [2, 4] of 23.7 ± 0.642 µM and an IC50 [2, 6] of 23.7 ± 0.642 µM.

In the case of `COc1ccc(C2CC(=O)C3=C(C2)Nc2ccccc2NC3c2ccncc2)cc1OC` (stereo not drawn) [Compound 6075841], the “Thapsigargin-induced phosphorylation of c-Jun” value [1] is reported as “fail to suppress”, the “Activity against thapsigargin-induced cell death / cell protection” value [2] is reported as “inactive” and the IC50 [2, 4] is reported as > 200 µM.

In the case of `CCCOc1ccc(C2Nc3ccccc3NC3=C2C(=O)CC(c2ccc(OC)c(OC)c2)C3)cc1` (stereo not drawn) [Compound 6237877], the “Thapsigargin-induced phosphorylation of c-Jun” value [1] is reported as “dose-dependent decrease”, the IC50 [2, 5] is reported as 16.3 ± 0.439 µM and the IC50 [2, 4] is reported as 12.5 ± 0.17 µM. For the same molecule, the IC50 [2, 6] was 12.5 ± 0.17 µM.

For `COc1ccc(C2CC(=O)C3=C(C2)Nc2ccccc2NC3c2cc(C)ccc2C)cc1` (stereo not drawn) [Compound 6238767], the “Phosphorylation of ASK1 at ser 967” value [3] was “enhanced phosphorylation of ser 967 only”, the “Phosphorylation of ASK1 at ser 83 and thr 845” value [3] was “not ser 83 or thr 845” and the IC50 [2, 5] was 13.3 ± 1.17 µM. The IC50 [2, 4] was 12.5 ± 0.177 µM and the IC50 [2, 6] was 12.5 ± 0.177 µM.

`COc1ccc(C2CC(=O)C3=C(C2)Nc2ccccc2NC3c2ccccc2C)cc1OC` (stereo not drawn) [Compound 6369841, 3-(3,4-dimethoxyphenyl)-11-(2-methylphenyl)-2,3,4,5,10,11-hexahydro-1H-dibenzo[b,e][1,4]diazepin-1-one] showed an IC50 ([2]; Rattus norvegicus, one value given, read-out: IC50) of 36.5 ± 2.19 µM.
